Assay results taken from patent US10471149B2 (Insmed Incorporated, priority 2012, dated 2019).
Like-named read-outs stand apart in the source and are kept apart here.

Columns and labels:
[1] = cited from earlier work
[2] = Chemical stability of vancomycin in aqueous solution (CDP-I formation by HPLC): effect of pH, organic bases, ethanol, ammonium ions; settings: 4° C. (FIG. 7); high concentration and low pH
Description: Selected samples were also incubated at a lower concentration (20 mg/mL).
In buffered samples, an appropriate amount of buffer or amino acid additive was added. The pH values were chosen to cover the range between the lowest and highest acceptable values of pH, including pH 5.0 for lipid stability reasons and pH 6.5, above which degradation is expected to be impractically fast.
The concentration of 200 mg/mL was chosen to mimic what a high intra-liposomal might be but was no higher than this for practical handling purposes. All samples were liquid solutions upon preparation.
For comparison, lower concentration solutions (20 mg/mL) also were prepared by diluting 200 mg/mL samples 10-fold in water. Samples were incubated at 4° C. (in refrigerator) and at ambient temperature (about 23° C., which is referred herein to as “room temperature” or “RT”).

[3] = animal models of meningitis caused by pneumococci; cited from earlier work

CCCCCCCCCCNCCN[C@@]1(C)C[C@H](O[C@H]2[C@H](Oc3c4cc5cc3Oc3ccc(cc3Cl)[C@@H](O)[C@@H](NC(=O)[C@@H](CC(C)C)NC)C(=O)N[C@@H](CC(N)=O)C(=O)N[C@H]5C(=O)N[C@H]3C(=O)N[C@H](C(=O)N[C@H](C(=O)O)c5cc(O)c(CNCP(=O)(O)O)c(O)c5-c5cc3ccc5O)[C@H](O)c3ccc(c(Cl)c3)O4)O[C@H](CO)[C@@H](O)[C@@H]2O)O[C@@H](C)[C@H]1O [Telavancin]
AUC [1]: 600 µg·h/mL
Protein binding [1]: 90-93%
Terminal half-life [1]: 7 h

CN[C@H](CC(C)C)C(=O)N[C@H]1C(=O)N[C@@H](CC(N)=O)C(=O)N[C@H]2C(=O)N[C@H]3C(=O)N[C@H](C(=O)N[C@H](C(=O)O)c4cc(O)cc(O)c4-c4cc3ccc4O)[C@H](O)c3ccc(c(Cl)c3)Oc3cc2cc(c3O[C@@H]2O[C@H](CO)[C@@H](O)[C@H](O)[C@H]2O[C@H]2C[C@](C)(N)[C@H](O)[C@H](C)O2)Oc2ccc(cc2Cl)[C@H]1O [Vancomycin]
AUC [1]: 260 µg·h/mL
Protein binding [1]: 10-55%
Terminal half-life [1]: 4 to 8 h
Vd [1]: 0.3 L/kg
degradation rate [2]: about 0.1 % per week

Teicoplanin
AUC [1]: 550 µg·h/mL
Protein binding [1]: 90%
Terminal half-life [1]: 83 to 168 h
Vd [1]: 0.9 to 1.6 L/kg

CN[C@H](CC(C)C)C(=O)N[C@H]1C(=O)N[C@@H](CC(N)=O)C(=O)N[C@H]2C(=O)N[C@H]3C(=O)N[C@H](C(=O)N[C@H](C(=O)O)c4cc(O)cc(O)c4-c4cc3ccc4O)[C@H](O[C@H]3C[C@](C)(N)[C@@H](O)[C@H](C)O3)c3ccc(c(Cl)c3)Oc3cc2cc(c3O[C@@H]2O[C@H](CO)[C@@H](O)[C@H](O)[C@H]2O[C@H]2C[C@](C)(NCc3ccc(-c4ccc(Cl)cc4)cc3)[C@@H](O)[C@H](C)O2)Oc2ccc(cc2Cl)[C@H]1O [Oritavancin]
AUC [1]: 152 µg·h/mL
Protein binding [1]: 90%
Terminal half-life [1]: 360 h
concentration in cerebrospinal fluid, % of the serum level [3]: 5%

CN[C@H]1C(=O)N[C@@H]2Cc3ccc(cc3)Oc3cc4cc(c3O[C@@H]3O[C@H](C(=O)O)[C@@H](O)[C@H](O)[C@H]3NC(=O)CCCCCCCCC(C)C)Oc3ccc(cc3Cl)[C@@H](O)[C@@H]3NC(=O)[C@H](NC(=O)[C@@H]4NC(=O)[C@@H](NC2=O)c2cc(cc(O)c2Cl)Oc2cc1ccc2O)c1ccc(O)c(c1)-c1c(O[C@H]2O[C@H](CO)[C@@H](O)[C@H](O)[C@@H]2O)cc(O)cc1[C@@H](C(=O)NCCCN(C)C)NC3=O [Dalbavanc in, Dalbavancin]
AUC ([1]; in vivo): 27103 µg·h/mL
Protein binding ([1]; in vivo): 98%
Vd ([1]; in vivo): 0.11 L/kg
